Assay results published in ChEMBL document CHEMBL1201862, “PubChem BioAssay data set” (2004).
Values joined by “and” are separate entries in the source; they are usually repeats but may differ in a detail not shown here. Identical values can stand only once.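 Cultured in 96-well plates, cells were exposed to test compound for 48 hours across five concentrations. The concentration for 50% growth inhibition is given as GI50.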 Active and inactive are the calls of the source. Rule as the data show it: active = GI50 up to about 1.1 µM and inactive = higher.

Columns and labels:
Assay in all cases: NCI tumour cell line growth inhibition, 48 h
HOP-92 = test system: HOP-92
HT-29 = test system: HT-29
RXF 393 = test system: RXF 393
SK-OV-3 = test system: SK-OV-3
OVCAR-5 = test system: OVCAR-5
SNB-75 = test system: SNB-75
SF-539 = test system: SF-539
CCRF-CEM = test system: CCRF-CEM
UACC-62 = test system: UACC-62
UO-31 = test system: UO-31
SR = test system: SR
IGROV-1 = test system: IGROV-1
SK-MEL-28 = test system: SK-MEL-28
LOX IMVI = test system: LOX IMVI
K562 = test system: K562
COLO 205 = test system: COLO 205
HCT-116 = test system: HCT-116
HL-60 = test system: HL-60
SN12C = test system: SN12C
NCI-H522 = test system: NCI-H522

SMILES	GI50 (HOP-92)	GI50 (HT-29)	GI50 (RXF 393)	GI50 (SK-OV-3)	GI50 (OVCAR-5)	GI50 (SNB-75)	GI50 (SF-539)	GI50 (CCRF-CEM)	GI50 (UACC-62)	GI50 (UO-31)	GI50 (SR)	GI50 (IGROV-1)	GI50 (SK-MEL-28)	GI50 (LOX IMVI)	GI50 (K562)	GI50 (COLO 205)	GI50 (HCT-116)	GI50 (HL-60)	GI50 (SN12C)	GI50 (NCI-H522)
CN(C)c1ccc(/C=C2\C[C@H]3[C@@H]4CCc5cc(O)ccc5[C@H]4CC[C@]3(C)C2=O)cc1	61.5 µM (inactive)	38.3 µM (inactive)	48.5 µM (inactive)	> 100 µM (inactive)	> 100 µM (inactive)	28.9 µM (inactive)	23.4 µM (inactive)	> 100 µM (inactive)	17.1 µM (inactive)	> 100 µM (inactive)	> 100 µM (inactive)	48 µM (inactive)	> 100 µM (inactive)	> 100 µM (inactive)	> 100 µM (inactive)	64.7 µM (inactive)	–	–	–	–
CCn1c2ccccc2c2cc(NC(=O)c3c(C)[nH]c(=O)[nH]c3=S)ccc21	> 100 µM (inactive)	48.2 µM (inactive)	35.6 µM (inactive)	> 100 µM (inactive)	21.4 µM (inactive)	> 100 µM (inactive)	–	29.2 µM (inactive)	31.9 µM (inactive)	51.3 µM (inactive)	41 µM (inactive)	> 10 µM (inactive)	33.3 µM (inactive)	> 100 µM (inactive)	28.8 µM (inactive)	22.9 µM (inactive)	43.3 µM (inactive)	37 µM (inactive)	69 µM (inactive)	–
CN1CC2(CCCCC2)C(O)C12C=CCCC2 (stereo not given)	–	> 100 µM (inactive)	> 100 µM (inactive)	> 100 µM (inactive)	–	69.5 µM (inactive)	> 100 µM (inactive)	> 100 µM (inactive)	> 100 µM (inactive)	> 100 µM (inactive)	–	> 100 µM (inactive)	> 100 µM (inactive)	> 100 µM (inactive)	> 100 µM (inactive)	> 100 µM (inactive)	–	> 100 µM (inactive)	> 100 µM (inactive)	> 100 µM (inactive)
C1=Cc2nccc3cc4c(c(c23)N1)OCO4	22.3 µM (inactive)	–	1.64 µM (inactive)	5.92 µM (inactive)	10.4 µM (inactive)	6.93 µM (inactive)	–	7.69 µM (inactive)	14.1 µM (inactive)	6.44 µM (inactive)	1.28 µM (inactive)	2.56 µM (inactive)	24 µM (inactive)	8.61 µM (inactive)	3.17 µM (inactive)	3.55 µM (inactive)	3.08 µM (inactive)	> 100 µM (inactive)	4.89 µM (inactive)	2.42 µM (inactive)
COc1ccc(/C(Cl)=C(\C=O)c2ccc(Cl)c(Cl)c2)cc1OC	2.69 µM (inactive)	2.47 µM (inactive)	–	38.5 µM (inactive)	–	0.294 µM (active)	5.89 µM (inactive)	2.73 µM (inactive)	4.63 µM (inactive)	7.33 µM (inactive)	–	> 10 µM (inactive)	13.4 µM (inactive)	3.37 µM (inactive)	3.87 µM (inactive)	16.7 µM (inactive)	4.18 µM (inactive)	2.7 µM (inactive)	4.28 µM (inactive)	2.36 µM (inactive)
C1CCC(OC2CSC2)OC1 (stereo not given)	> 100 µM (inactive)	> 100 µM (inactive)	> 100 µM (inactive)	> 100 µM (inactive)	–	> 100 µM (inactive)	–	> 100 µM (inactive)	–	> 100 µM (inactive)	> 100 µM (inactive)	–	> 100 µM (inactive)	> 100 µM (inactive)	> 100 µM (inactive)	> 100 µM (inactive)	> 100 µM (inactive)	–	> 100 µM (inactive)	> 100 µM (inactive)
CN1c2ccccc2NC(CC(=O)O)C2CC=CN21 (stereo not given)	> 100 µM (inactive)	> 100 µM (inactive)	> 100 µM (inactive)	> 100 µM (inactive)	> 100 µM (inactive)	> 100 µM (inactive)	> 100 µM (inactive)	> 100 µM (inactive)	> 100 µM (inactive)	> 100 µM (inactive)	–	> 100 µM (inactive)	> 100 µM (inactive)	> 100 µM (inactive)	> 100 µM (inactive)	> 100 µM (inactive)	–	> 100 µM (inactive)	> 100 µM (inactive)	> 100 µM (inactive)
CCc1cc(=O)n(/C(C)=C/c2ccccc2)n1C	> 100 µM (inactive)	> 100 µM (inactive)	> 100 µM (inactive)	> 100 µM (inactive)	> 100 µM (inactive)	> 100 µM (inactive)	> 100 µM (inactive)	> 100 µM (inactive)	> 100 µM (inactive)	> 100 µM (inactive)	–	> 100 µM (inactive)	> 100 µM (inactive)	> 100 µM (inactive)	> 100 µM (inactive)	> 100 µM (inactive)	> 100 µM (inactive)	–	> 100 µM (inactive)	–
COc1cc2ccnc3c2c(c1OC)N(C)C=C3	–	–	25.1 µM (inactive)	16.5 µM (inactive)	33 µM (inactive)	33.6 µM (inactive)	–	–	26.4 µM (inactive)	14.2 µM (inactive)	21.3 µM (inactive)	–	32.7 µM (inactive)	21.5 µM (inactive)	21.1 µM (inactive)	20.5 µM (inactive)	11 µM (inactive)	–	30.4 µM (inactive)	–
O=C(CC(=O)N1N=C(c2ccccc2)C(/N=N/c2ccc(C(=O)O)cc2)C1=O)Nc1ccc(F)cc1 (stereo not given)	50.8 µM (inactive)	48.9 µM (inactive)	4.01 µM (inactive)	12.2 µM (inactive)	52.1 µM (inactive)	1.51 µM (inactive)	13.4 µM (inactive)	–	20.5 µM (inactive)	29.6 µM (inactive)	–	22.5 µM (inactive)	38.3 µM (inactive)	12.4 µM (inactive)	18.9 µM (inactive)	43.8 µM (inactive)	12.2 µM (inactive)	22 µM (inactive)	38.9 µM (inactive)	10.4 µM (inactive)
CCOC(=O)C(C)N1C(=O)c2ccccc2S1(=O)=O (stereo not given)	> 100 µM (inactive)	> 100 µM (inactive)	–	> 100 µM (inactive)	> 100 µM (inactive)	> 100 µM (inactive)	> 100 µM (inactive)	> 100 µM (inactive)	> 100 µM (inactive)	> 100 µM (inactive)	–	> 100 µM (inactive)	> 100 µM (inactive)	> 100 µM (inactive)	> 100 µM (inactive)	> 100 µM (inactive)	> 100 µM (inactive)	> 100 µM (inactive)	> 100 µM (inactive)	> 100 µM (inactive)
Cc1c2cnccc2c(C)c2c1c1ccccc1n2CCCCCCCl	> 50 µM (inactive)	29.6 µM (inactive)	> 50 µM (inactive)	> 50 µM (inactive)	> 46.2 µM (inactive)	> 31.6 µM (inactive)	> 50 µM (inactive)	32.7 µM (inactive)	> 50 µM (inactive)	> 47.5 µM (inactive)	–	> 45.7 µM (inactive)	> 48.4 µM (inactive)	30.4 µM (inactive)	18.1 µM (inactive)	28.2 µM (inactive)	23.6 µM (inactive)	10.1 µM (inactive)	> 50 µM (inactive)	> 50 µM (inactive)
C#CC(C)(C)Oc1cc(OC)c2c(=O)c3ccccc3n(C)c2c1	–	4.81 µM (inactive)	25.2 µM (inactive)	23 µM (inactive)	31.8 µM (inactive)	24.8 µM (inactive)	26.1 µM (inactive)	5.27 µM (inactive)	7.59 µM (inactive)	3.87 µM (inactive)	2.83 µM (inactive)	0.0238 µM (active)	16.2 µM (inactive)	–	10.7 µM (inactive)	14.8 µM (inactive)	17.4 µM (inactive)	10.9 µM (inactive)	10 µM (inactive)	–
COc1cc2c3cc1Oc1c(OC)c(OC)cc4c1C(Cc1ccc(cc1)Oc1cc(ccc1O)CC3N(C)CC2)N(C)CC4 (stereo not given)	16.2 µM (inactive)	2.78 µM (inactive) and 5.09 µM (inactive)	1.29 µM (inactive) and 1.09 µM (active)	13.4 µM (inactive) and 25.6 µM (inactive)	18.5 µM (inactive) and 14.8 µM (inactive)	11.1 µM (inactive) and 11.8 µM (inactive)	–	–	8.89 µM (inactive) and 15.1 µM (inactive)	4.9 µM (inactive) and 8.28 µM (inactive)	2.78 µM (inactive) and 2.06 µM (inactive)	16.7 µM (inactive) and 11.4 µM (inactive)	–	–	1.49 µM (inactive) and 1.71 µM (inactive)	–	4.6 µM (inactive) and 6.76 µM (inactive)	–	21.7 µM (inactive) and 15.1 µM (inactive)	–
CCNc1nnc(-c2nsc3ccccc23)s1	> 100 µM (inactive)	26.5 µM (inactive)	32.8 µM (inactive)	–	> 100 µM (inactive)	8.83 µM (inactive)	56.2 µM (inactive)	> 100 µM (inactive)	> 100 µM (inactive)	24.8 µM (inactive)	> 100 µM (inactive)	> 100 µM (inactive)	88.3 µM (inactive)	> 100 µM (inactive)	> 100 µM (inactive)	> 100 µM (inactive)	24.7 µM (inactive)	> 100 µM (inactive)	> 100 µM (inactive)	–
CCCCCCCC/C=C\CCCCCCCCCCCC(=O)O [ERUCIC ACID]	38.9 µM (inactive)	43.8 µM (inactive)	8.02 µM (inactive)	> 85.9 µM (inactive)	102 µM (inactive)	37 µM (inactive)	16.8 µM (inactive)	24.4 µM (inactive)	27.5 µM (inactive)	74 µM (inactive)	–	55.1 µM (inactive)	32.7 µM (inactive)	29.4 µM (inactive)	22.1 µM (inactive)	20.2 µM (inactive)	22.3 µM (inactive)	19.3 µM (inactive)	32.6 µM (inactive)	19.8 µM (inactive)
